Ends that are not written are not given here.

Holding throughout (type): cell-based
For data set [1], the system named is Bacillus subtilis (ATCC 6633). Nature of the data set: MIC determination, broth dilution. The note with it: fragments, first figure of the cell (µM/µg.mL^−1); Mueller-Hinton broth, 37°C, 12 h; 100% growth inhibition. As for the experimental part:
(§1) The minimal inhibitory concentration (MIC) was determined using a standardized dilution method according to NCSLA guidelines. Overnight colonies of Bacillus subtilis (ATCC 6633), Enterococcus faecalis (ATCC 12953), Staphylococcus aureus (ATCC29213), Streptococcus pyogenes (ATCC19615), Escherichia coli (ATCC8739), Klebsiella pneumonia (ATCC13885), Proteus mirabilis (ATCC25933), Pseudomonas aeruginosa ATCC 15442 and Salmonella typhimurium (ATCC14028) were suspended to a turbidity of 0.5 units and further diluted in Mueller-Hinton broth (MH) (Himedia - India). […] Ten microliters of each concentration was added to each corresponding well of a 96-well plate (TPP, Switzerland) and 1×10^5 bacteria in the volume of 90 µL. The plate was incubated at 37°C for 12 h.
(In general: Dilution methods test growth across graded concentrations, often in twofold steps.)

For data set [2], the system named is Pseudomonas aeruginosa (ATCC15442). Briefly: MIC determination, broth dilution. The note with it: fragments, first figure of the cell (µM/µg.mL^−1); Mueller-Hinton broth, 37°C, 12 h; 100% growth inhibition. The procedure: as §1
In data set [3] the test system is Streptococcus pyogenes (ATCC19615). Briefly: MIC determination, broth dilution. The note with it: fragments, first figure of the cell (µM/µg.mL^−1); Mueller-Hinton broth, 37°C, 12 h; 100% growth inhibition. As for the experimental part:
as §1

The test system of data set [4] is Staphylococcus aureus (ATCC29213). Briefly: MIC determination, broth dilution. The following applies: fragments, first figure of the cell (µM/µg.mL^−1); Mueller-Hinton broth, 37°C, 12 h; 100% growth inhibition. As for the experimental part: as §1
Data set [5] has as its system Salmonella typhimurium (ATCC14028). Nature of the data set: MIC determination, broth dilution. The following applies: fragments, first figure of the cell (µM/µg.mL^−1); Mueller-Hinton broth, 37°C, 12 h; 100% growth inhibition. As for the experimental part:
as §1

The test system of data set [6] is Proteus mirabilis (ATCC25933). Briefly: MIC determination, broth dilution. The note with it: fragments, first figure of the cell (µM/µg.mL^−1); Mueller-Hinton broth, 37°C, 12 h; 100% growth inhibition. As for the experimental part:
as §1

Data set [7] has as its system Escherichia coli (ATCC8739). Nature of the data set: MIC determination, broth dilution. The note with it: fragments, first figure of the cell (µM/µg.mL^−1); Mueller-Hinton broth, 37°C, 12 h; 100% growth inhibition. The procedure:
as §1

The test system of data set [8] is Klebsiella pneumoniae (ATCC13885). Briefly: MIC determination, broth dilution. The following applies: fragments, first figure of the cell (µM/µg.mL^−1); Mueller-Hinton broth, 37°C, 12 h; 100% growth inhibition. The procedure: as §1
The test system of data set [9] is Enterococcus faecalis (ATCC 12953). Nature of the data set: MIC determination, broth dilution. The note with it: fragments, first figure of the cell (µM/µg.mL^−1); Mueller-Hinton broth, 37°C, 12 h; 100% growth inhibition. The procedure: as §1
Another data set has as its system human erythrocytes. Nature of the data set: Hemolysis assay. The following applies: for haemolysis: even at higher concentrations; for Cytotoxicity, Hemolysis assay: sample 512 µg.mL^−1, 24 h by the footnote (method: 1 h, 37°C), relative to 0.1% triton X-100, OD 540 nm, mean ± S.D., three independent experiments. The procedure:
Human heparine-blood was obtained from the Universidade Católica de Brasilia cell collection. Collection was obtained with written informed consent. Heparine blood cells were centrifuged at 800 g for 10 min. The erythrocytes were washed three times and re-suspended in 0.1% PBS, pH 7.4. […] The positive control was 0.1% triton X-100 (Sigma-Aldrich, USA). The samples were then centrifuged at 800 g for 10 min. The optical density at 540 nm of the supernatant was measured. The relative optical density compared to that of the suspension treated with 0.1% triton X-100 defined hemolysis percent.

In data set [10] the test system is RAW 264.7 murine macrophage-like cells. Briefly: Cell cytotoxicity, MTT assay. The following applies: for cell viability: RAW264.7, even at higher concentrations; for Cytotoxicity, MTT assay: RAW264.7 cells, sample 512 µg.mL^−1, 24 h, mean ± S.D., three independent experiments. The procedure:
Sterile filtered MTT (3-(4,5-dimethylthiazolyl)-2,5-diphenyl-tetrazoliumbromide; Sigma-Aldrich, USA) solution (5 mg.mL^−1 in PBS) was dark stored at −20°C. RAW 264.7 murine macrophage-like cells, 1×10^5 cells/well was seeded in 96 well plates (TPP, Switzerland), in supplemented DMEM medium (4 mM glutamine, 10% FCS and 100 units.ml^−1 penicillin/streptomycin) containing multiple treatments. Treatments consisted of fractions F-44, F-51, F-68, BmLAO (0–512 µg.mL^−1) and fragments BmLAO-f1, BmLAO-f2 and BmLAO-f3 at different concentrations (0–500 µM). After overnight incubation, 60% of medium was then removed, and 10 µl of the MTT solution was added to each well; the plates were then incubated for 4 h in the presence of 5% CO2 at 37°C. The blue formazan product generated was dissolved by the addition of 100 µl of 100% DMSO (Mallinckrodt Chemical) per well. The plates were then gently swirled for 5 min at room temperature in order to dissolve the precipitate. The absorbance was monitored at 575 nm in a Biotek Powerwave HT microplate spectrophotometer (Bio-Tek Instruments, USA).
For orientation: Tetrazolium dyes change colour on reduction, which living cells bring about.

For orientation: MIC means the smallest concentration in the dilution series that meets the test's criterion for growth inhibition. Read a low MIC as inhibition by little substance. Consider IYYPPNHNFP-NH2 [BmLAO-f3], for which the minimum inhibitory concentration (MIC) is 220 µM in data set [1]; 220 µM in [2]; 110 µM in data set [3]; 220 µM in [4]; 220 µM in data set [5]; 110 µM in [6]. For the same substance, the MIC in [7] was determined as 220 µM; in data set [8] it was 110 µM; in [9], 110 µM. In the data set with human erythrocytes, the haemolysis result was “less than 25%”. Also, the “Cytotoxicity, Hemolysis assay” value in the data set with human erythrocytes is on record as 9.87±3.1 % of control. For the same substance, the cell viability result in data set [10] is recorded as “over 78%”. In addition, the “Cytotoxicity, MTT assay” value in [10] was 11.2±2.1 % of control.
On to IKFEPPLPPKKAH-NH2 [BmLAO-f1], for which the minimum inhibitory concentration (MIC) was 43 µM in data set [1]; 22 µM in [2]; 43 µM in data set [3]; 43 µM in [4]; 43 µM in [5]; 43 µM in data set [6]. The MIC was 22 µM in data set [7], 22 µM in data set [8] and 43 µM in data set [9]. In the data set on human erythrocytes, the haemolysis result is given as “less than 25%”. The “Cytotoxicity, Hemolysis assay” value with human erythrocytes is listed as 13.75±3.6 % of control. Moreover, in data set [10], the “Cytotoxicity, MTT assay” value was 21.0±3.5 % of control.
As for KKFWEDDG-NH2 [BmLAO-f2], the minimal inhibitory concentration (MIC) in [1] came to 250 µM; in [2], 250 µM; in data set [3], 125 µM; in data set [4], 250 µM; in [6] it was 125 µM; in data set [7], 250 µM. Moreover, the MIC in data set [8] and in [9] was 125 µM throughout. Also, the haemolysis result with human erythrocytes is on record as “less than 25%”. Also, the “Cytotoxicity, Hemolysis assay” value with human erythrocytes is 11.32±2.9 % of control. In data set [10], the cell viability result was “over 78%”. Besides, in data set [10], the “Cytotoxicity, MTT assay” value is reported as 13.6±4.5 % of control.

The values are drawn from publication PMC3306279, “Evaluation of an Antimicrobial L-Amino Acid Oxidase and Peptide Derivatives from Bothropoides mattogrosensis Pitviper Venom” (PLoS ONE, 2012).
